“Also recorded” adds a separate entry of the source.
What was measured:
[1] = system: GILZ; test: GILZ mRNA expression in CD11c+ MoDC (quantitative real-time PCR); assay type: cell-based, human; details: relative to untreated MoDC cultured alone; 24 hr (FIG. 13B); dex 100 nM; PUVA 100 ng/mL, 1 J/cm^2
Description: Monocytes were cultured at a density of 5×10^6 cells/mL in 6- and 12-well polystyrene tissue culture plates at 37° C. and 5% CO2 in RPMI-1640 (Gibco) supplemented with heat-inactivated 15% AB serum (Gemini) and 1% penicillin/streptomycin (now referred to as complete media). 800 IU/mL recombinant human GM-CSF (R&D Systems) and 1000 IU/mL recombinant human IL-4 (R&D Systems) were added to cultures for 36 hr to induce monocyte to DC differentiation as described.
Non-adherent cells (purity: 66.0±4.5% CD3^+) removed during plastic adherence will now be generally referred to as lymphocytes. Lymphocytes were treated with 8-MOP (100 ng/mL) and UVA (1 J/cm^2), washed with PBS, and co-cultured in complete media at 37° C. and 5% CO2 with either PUVA-treated or untreated-MoDC in a ratio of 5 or 10 lymphocytes to 1 MoDC. […] 24 hr after LPS stimulation, cells were harvested for RNA isolation and immunophenotyping, and supernatants were collected for cytokine quantification.
RNA was isolated from CD11c^+ MoDC using QIAShredder columns (QIAGEN) and the RNeasy Mini Kit (QIAGEN) with on-column Dnase I treatment (QIAGEN). RNA yield and purity were assessed using a NanoDrop ND-1000 spectrophotometer. cDNA was obtained using the High Capacity cDNA Reverse Transcription Kit (Applied Biosystems) in a 96-well thermocycler (MJ Research PTC-200). […]

[2] = system: CD11c+ cells; test: Apoptosis / cell death of CD11c+ MoDC (Annexin-V/7-AAD); assay type: cell-based, human
Description: Immunofluorescence was analyzed using a FACSCalibur L (BD Biosciences) within 2 hr of fixation with 2% paraformaldehyde.

[3] = system: lymphocytes; test: Apoptosis of lymphocytes (Annexin-V/7-AAD); assay type: cell-based, human
[4] = system: MoDC; test: Cytokine quantification in MoDC supernatants after LPS stimulation (magnetic bead multiplex); assay type: cell-based, human
Description: Lymphocytes were treated with 8-MOP (100 ng/mL) and UVA (1 J/cm^2), washed with PBS, and co-cultured in complete media at 37° C. and 5% CO2 with either PUVA-treated or untreated-MoDC in a ratio of 5 or 10 lymphocytes to 1 MoDC. MoDC treated for 24 hr with 100 nM dexamethasone (Sigma) served as the positive control group. After 24 hr, cells were harvested and MoDC were re-purified. […] CD11c^+ MoDC were re-plated at 0.5-1.0×10^6 cells/mL in complete media and stimulated with 100 ng/mL LPS (Sigma). 24 hr after LPS stimulation, cells were harvested for RNA isolation and immunophenotyping, and supernatants were collected for cytokine quantification.
(§1) Culture supernatants were analyzed in a multiplex format utilizing magnetic beads to IL-6, IL-8, IL-10, IL-12p70, IFN-γ, TNF-α, RANTES, MCP-1, and MIP-1β (BioRad Laboratories). For siRNA experiments, supernatants were analyzed with enzyme-linked immunosorbent assay (ELISA) kits for IL-10 (R&D Systems) and IL-12p70 (Enzo Life Science). All samples and standards were run in duplicate and analyzed using the LUMINEX 200 (LUMINEX), or the BioTek EL800 (BioTek).

[5] = system: MoDC; test: IL-10 and IL-12p70 ELISA in siRNA experiments; assay type: cell-based, human; details: siRNA experiment, not transfected
Description: Silencer select pre-designed and validated GILZ siRNA (Invitrogen), with off-target prediction algorithms, was used to knockdown GILZ expression. Mo-DC were transfected using Lipofectamine RNAiMAX Reagent (Invitrogen). RNAi duplex and lipofectamine reagent were incubated together for 20 min, then added to MoDC cultures and incubated for 2 hr at 37° C. and 5% CO2. Transfected MoDC were treated in an identical fashion as described for the MoDC/lymphocyte co-cultures. MoDC were also transfected with scramble siRNA.
as §1

[6] = system: lymphocytes; test: Apoptosis of ECP-processed lymphocytes after overnight incubation; assay type: cell-based, human; details: UVA-activated 8-MOP; APO2-PE, Trypan blue and/or annexin/propidium iodide
[7] = system: immature MoDC; details: 24 hr
[8] = system: GILZ; test: GILZ mRNA expression in CD11c+ MoDC (quantitative real-time PCR); assay type: cell-based, human
[9] = system: P-selectin; test: Surface expression of P-selectin on platelets (platelet activation); assay type: cell-based, human; details: platelets activated with thrombin (positive control)
Description: Monoclonal antibodies for immunophenotyping included CD14 (LPS receptor; monocytes), CD11c (integrin subunit; monocytes and DC), HLA-DR (class II MHC molecule), CD83 (DC marker), CD62p (P-selectin; activated platelets), and CD61 (integrin subunit; platelets). Antibodies were obtained from Beckman Coulter (CD14, CD11c, HLADR, CD83) or Sigma (CD62p, CD61) and used at their pre-determined optimal dilutions. Background staining was established with appropriate isotype controls, and immunofluorescence was analyzed using a FC500 flow cytometer (Beckman Coulter). Two-color membrane staining was performed by adding the pre-determined optimal concentrations of both antibodies directly conjugated to FITC or PE and incubating for 20 min at 4° C., followed by washing to remove unbound antibodies. Combined membrane and cytoplasmic staining was performed following manufacturer's instructions for cell fixation and permeabilization (Intraprep kit, Beckman Coulter).
Upon encountering stimuli such as damaged endothelium or thrombin, platelets become activated and almost instantaneously translocate these intracellular proteins to the plasma membrane (Kaplan et al., 1979, see references). […] To test this hypothesis, surface expression of P-selectin, a well-known marker of platelet activation, was assessed before and after adhesion. […]

[10] = system: monocytes; test: Static co-culture of monocytes with platelets; assay type: cell-based, human; details: platelets activated with thrombin; no flow; 18 hours
Description: Experiments involving co-cultures of monocytes with additional platelets were performed as described in the Overnight Culture section, with a few necessary modifications. Following Ficoll-Hypaque separation, mononuclear cells were resuspended in 30% AB serum/RMPI to a final concentration of 10×10^6 cells/ml, of which 1 ml was allocated to each well of a 16-well plate. An additional 1 ml of platelets (suspended in RPMI, at 2× the desired final concentration) or RPMI without platelets was then added to each well. To activate platelets, 500 μl containing 2 units of thrombin was added to half the wells, and 500 μl of RPMI was added to the others to balance the volume. Cells were then incubated as described previously.

[11] = 100 ng/mL and 1 J/cm^2, 24 hr after treatment
[12] = 24 hr after LPS stimulation, vs untreated MoDC
[13] = 8-MOP 0 to 200 ng/mL, UVA 1 or 2 J/cm2
[14] = product of 8-MOP and UVA exceeded 100

Compound: COc1c2occc2cc2ccc(=O)oc12 [8-MOP, 8-methoxypsoralen]
- GILZ up-regulation, MoDC cultured alone [1]: 2.78 fold
- Late apoptotic CD11c+ cells ([2]; 1 J/cm^2, all doses of 8-MOP tested, 24 hr): less than 13%
- Late apoptotic CD11c+ cells ([2]; 2 J/cm^2, all doses of 8-MOP tested, 24 hr): less than 16%
- Early apoptotic CD11c+ cells compared to untreated MoDC ([2]; 2 J/cm^2 and 200 ng/mL, 24 hr): increase
- Cell death ([2]; 4 J/cm^2 UVA (data not shown)): high levels of non-specific cell death
- Early apoptotic lymphocytes [3, 11]: 44.3%
- Late apoptotic lymphocytes [3, 11]: 33.7%
- Time at which lymphocytes display Annexin-V after treatment ([3]; 1 J/cm^2 and 100 ng/mL (data not shown)): ≤ 2 h
- Lymphocytes Annexin-V+ ([3]; 24 hr after treatment): 64.3±3.2%
- IL-10 production [4, 12]: increased production of IL-10
- Production of pro-inflammatory cytokines and chemokines [4, 12]: decreased production of all pro-inflammatory cytokines and chemokines tested, except TNF-α and IFN-γ
- Ratio of IL-10 to IL-12p70, MoDC cultured alone ([4]; after LPS, untreated MoDC 6.7): 38.7
- Ratio of IL-10 to IL-12p70, PUVA-DC exposed to ApoL ([4]; after LPS, untreated MoDC 6.7): 114.9
- IL-10 to IL-12p70 ratio, non-transfected MoDC cultured alone [5]: 8.4
- IL-10 to IL-12p70 ratio, non-transfected PUVA-DC exposed to ApoL [5]: 28.4
- ECP-processed lymphocytes apoptotic after overnight incubation [6]: 99%
- Membrane CD83, CD80 and CD86 expression (qualitative) [7, 13]: down-regulates
- Membrane HLA-DR expression (qualitative) [7, 13]: up-regulates
- Increase of HLA-DR expression [7, 14]: 38%
- Reduction of CD80 expression [7, 14]: 30%
- Reduction of CD83 expression [7, 14]: 31%
- Reduction of CD86 expression [7, 14]: 54%
- GILZ expression ([8]; 0.5 J/cm^2 UVA): no effect on GILZ expression until the 8-MOP concentration reached 200 ng/mL
- GILZ up-regulation ([8]; 1 J/cm^2 UVA, 100 ng/mL 8-MOP, 24 hr): 2.9 fold
- GILZ up-regulation ([8]; 1 J/cm^2 UVA, 200 ng/mL 8-MOP, 24 hr): 4.4 fold
- 8-MOP concentration at which dose-dependent GILZ up-regulation starts ([8]; 2 J/cm^2 UVA): 50 ng/mL
- GILZ expression ([8]; 8-MOP alone, without UVA, 24 hr): did not effect GILZ expression
- Time GILZ remains significantly elevated ([8]; 8-MOP and UVA light): 72 h
- Time of peak GILZ induction after treatment ([8]; 8-MOP and UVA light): 24 h
- GILZ expression in immature MoDC after 8-MOP plus UVA light (qualitative) ([8]; 24 hr after PUVA): up-regulates GILZ
- GILZ expression increase ([8]; combination of 8-MOP and UVA light, relative to untreated MoDC (FIG. 10E)): 5.5 fold
- GILZ up-regulation ([8]; product of 8-MOP and UVA = 100): 3 fold
- GILZ up-regulation ([8]; product of 8-MOP and UVA = 200): 4.8 fold
- GILZ up-regulation ([8]; product of 8-MOP and UVA = 400): 8.6 fold

Compound: thrombin
- P-selectin mean fluorescence intensity (MFI) [9]: 108.3±23
- Platelets P-selectin positive [9]: 71±18%
- DC differentiation of monocytes under static conditions [10]: neither activated nor non-activated platelets were capable of inducting DC differentiation; also recorded: did not cause a discernible difference
